Experimental data published in ChEMBL document CHEMBL1148993, “UV-mediated genotoxicity of furanoquinoline and of certain tryptophan-derived alkaloids” (J Nat Prod, 1983).
Structures can show the parent of a compound that is named as a salt.

Experiments:
[1] = system: CHO; assay: Genotoxicity against CHO cells; assay type: toxicity, cell-based, Cricetulus griseus; details: chinese hamster
[2] = system: CHO; assay: Genotoxicity against CHO cells after UV irradiation; assay type: toxicity, cell-based, Cricetulus griseus; details: chinese hamster
[3] = (§1) Genotoxicity in CHO cells assessed as mitotic inhibition at 0.62 ppm after 60 mins in dark followed by 5 W/m'2 UV irradiation for 30 mins; assay type: toxicity, cell-based, Cricetulus griseus; details: chinese hamster, CHO cells; read-out: Activity
[4] = system: CHO; assay: Genotoxicity in CHO cells assessed as mitotic inhibition at 1.25 ppm after 60 mins in dark followed by 5 W/m'2 UV irradiation for 30 mins; assay type: toxicity, cell-based, Cricetulus griseus; details: chinese hamster, 0.5 h
[5] = system: CHO; assay: as §1; assay type: toxicity, cell-based, Cricetulus griseus; details: chinese hamster, cho, 0.5 h
[6] = system: Pseudomonas aeruginosa; assay: Phototoxicity against Pseudomonas aeruginosa at 100 ug/disk after irradiation with W/m'2 UV light; assay type: functional; details: light or radiation study, read-out: IZ
[7] = system: Pseudomonas aeruginosa; assay: Phototoxicity against Pseudomonas aeruginosa at 100 ug/disk in dark; assay type: functional; details: light or radiation study, read-out: IZ
[8] = system: Pseudomonas fluorescens; assay: Phototoxicity against Pseudomonas fluorescens at 100 ug/disk after irradiation with W/m'2 UV light; assay type: functional; details: light or radiation study, read-out: IZ
[9] = system: Pseudomonas fluorescens; assay: Phototoxicity against Pseudomonas fluorescens at 100 ug/disk in dark; assay type: functional; details: light or radiation study, read-out: IZ
[10] = system: Bacillus subtilis; assay: Phototoxicity against Bacillus subtilis at 100 ug/disk after irradiation with W/m'2 UV light; assay type: functional; details: light or radiation study, read-out: IZ
[11] = system: Enterococcus faecalis; assay: Phototoxicity against Streptococcus faecalis at 100 ug/disk after irradiation with W/m'2 UV light; assay type: functional; details: light or radiation study, read-out: IZ
[12] = system: Enterococcus faecalis; assay: Phototoxicity against Streptococcus faecalis at 100 ug/disk in dark; assay type: functional; details: light or radiation study, read-out: IZ
[13] = system: Staphylococcus aureus; assay: Phototoxicity against Staphylococcus aureus at 100 ug/disk after irradiation with W/m'2 UV light; assay type: functional; details: light or radiation study, read-out: IZ
[14] = system: Staphylococcus aureus; assay: Phototoxicity against Staphylococcus aureus at 100 ug/disk in dark; assay type: functional; details: light or radiation study, read-out: IZ
[15] = system: Candida albicans; assay: Phototoxicity against Candida albicans at 100 ug/disk after irradiation with W/m'2 UV light; assay type: functional; details: light or radiation study, read-out: IZ
[16] = system: Candida albicans; assay: Phototoxicity against Candida albicans at 100 ug/disk in dark; assay type: functional; details: light or radiation study, read-out: IZ
[17] = system: Saccharomyces cerevisiae; assay: Phototoxicity against Saccharomyces cerevisiae at 100 ug/disk after irradiation with W/m'2 UV light; assay type: functional; details: light or radiation study, read-out: IZ
[18] = system: Saccharomyces cerevisiae; assay: Phototoxicity against Saccharomyces cerevisiae at 100 ug/disk in dark; assay type: functional; details: light or radiation study, read-out: IZ
[19] = system: CHO; assay: Genotoxicity in CHO cells assessed as mitotic inhibition at 0.31 ppm after 60 mins in dark followed by 5 W/m'2 UV irradiation for 30 mins; assay type: toxicity, cell-based, Cricetulus griseus; details: chinese hamster, 0.5 h
[20] = system: CHO; assay: Genotoxicity in CHO cells assessed as chromosomal aberrations at 0.07 ppm after 60 mins in dark followed by 5 W/m'2 UV irradiation for 30 mins; assay type: toxicity, cell-based, Cricetulus griseus; details: chinese hamster, 0.5 h

CC[C@]1(O)C[C@@H]2CN(CCc3c([nH]c4ccccc34)[C@@](C(=O)OC)(c3cc4c(cc3OC)N(C)[C@H]3[C@@](O)(C(=O)OC)[C@H](OC(C)=O)[C@]5(CC)C=CCN6CC[C@]43[C@@H]65)C2)C1 [VINBLASTINE]
Activity [1]: Not Active | Activity [2]: Not Active

Cc1nccc2c1[nH]c1ccccc12 [HARMANE HYDROCHLORIDE]
inhibition at 0.5 h, 0.62 ppm [3]: 0%

CN1[C@@H]2CC[C@H]1C[C@@H](OC(=O)C(CO)c1ccccc1)C2 (stereo partly drawn) [ATROPINE]
Activity [1]: Not Active | Activity [2]: Not Active

COc1ccc2c3c([nH]c2c1)C(C)=NCC3 [HARMALINE]
Activity [4]: Active | Activity [5]: Active

CN1[C@@H]2CC[C@H]1C[C@@H](OC(=O)C(CO)c1ccccc1)C2 (stereo partly drawn) [ATROPINE SULFATE]
zone of inhibition at 100 µg/disc [6]: 0 mm | zone of inhibition at 100 µg/disc [7]: 0 mm | zone of inhibition at 100 µg/disc [8]: 0 mm | zone of inhibition at 100 µg/disc [9]: 0 mm | zone of inhibition at 100 µg/disc [10]: 0 mm | zone of inhibition at 100 µg/disc [11]: 0 mm | zone of inhibition at 100 µg/disc [12]: 0 mm | zone of inhibition at 100 µg/disc [13]: 0 mm | zone of inhibition at 100 µg/disc [14]: 0 mm | zone of inhibition at 100 µg/disc [15]: 0 mm | zone of inhibition at 100 µg/disc [16]: 0 mm | zone of inhibition at 100 µg/disc [17]: 0 mm | zone of inhibition at 100 µg/disc [18]: 0 mm

COc1ccc2[nH]c3c(c2c1)CCN=C3C
Activity [5]: Toxic | Activity [19]: Active | Activity [20]: 0%
